The values below come from ChEMBL document CHEMBL4364288, “Discovery of carbazole derivatives as novel allosteric MEK inhibitors by pharmacophore modeling and virtual screening” (Eur J Med Chem, 2019).

Bounds are passed on as bounds.

Test [1] relates to Sf21. As to conditions: Homo sapiens, at 20 µM.
Description: Inhibition of recombinant N-terminal GST-tagged human BRAF (433-726 residues) expressed in baculovirus infected sf21 insect cells/recombinant human full length N-terminal GST-tagged MEK1 expressed in Escherichia coli cascading pathway assessed as reduction in MEK1 phosphorylation at 20 uM incubated for 2 hrs by HTRF assay relative to control
For test [2], the species on record is Homo sapiens. Conditions: at 20 µM.
Description: Inhibition of GST-tagged MEK1/ERK2 (unknown origin) cascading pathway assessed as reduction in ERK2 phosphorylation at 20 uM incubated for 2 hrs by HTRF assay relative to control
Test [3] relates to A-375. As to the kind of experiment: cells. It counts as functional, cell-based. Conditions: Homo sapiens, A-375, 72 h.
Description: Antiproliferative activity against human A375 cells assessed as cell viability incubated for 72 hrs by cell titer-glo luminescent cell viability assay (Rvb = > 100 uM)
For test [4], the system named is A549. The test is described as follows: cells. It counts as functional, cell-based. Conditions: Homo sapiens, A549, 72 h.
Test [5] relates to HEK293. The test is described as follows: cells. Type of test: ADME, cell-based. As to conditions: Homo sapiens, HEK293, 72 h.
The subject of test [6] is HL-60. The test is described as follows: cells. Type of test: functional, cell-based. Conditions: Homo sapiens, HL-60, 72 h.
The species named for test [7] is Homo sapiens. Conditions: at 2 µM.
Description: Inhibition of GST-tagged MEK1/ERK2 (unknown origin) cascading pathway assessed as reduction in ERK2 phosphorylation at 2 uM incubated for 2 hrs by HTRF assay relative to control
The subject of test [8] is Sf21. Conditions: Homo sapiens, at 2 µM.
Description: Inhibition of recombinant N-terminal GST-tagged human BRAF (433-726 residues) expressed in baculovirus infected sf21 insect cells/recombinant human full length N-terminal GST-tagged MEK1 expressed in Escherichia coli cascading pathway assessed as reduction in MEK1 phosphorylation at 2 uM incubated for 2 hrs by HTRF assay relative to control
Test [9] deals with Dual specificity mitogen-activated protein kinase kinase 1 (Homo sapiens) (UniProt Q02750). The test is described as follows: Inhibition of recombinant full length GST-tagged human MEK1 expressed in baculovirus infected sf9 insect cells at 2 uM measured after 30 to 90 mins by HTRF based Lanthascreen Eu kinase binding assay relative to AZD6244. Background: Time-resolved FRET reads energy transfer from a long-lived donor to a nearby acceptor.

Test [10] is described as follows: Inhibition of GST-tagged MEK1/ERK2 (unknown origin) cascading pathway assessed as reduction in ERK2 phosphorylation incubated for 2 hrs by HTRF assay relative to control. On the set-up: species or system Homo sapiens.
The target in test [11] is Dual specificity mitogen-activated protein kinase kinase 1 (Homo sapiens) (UniProt Q02750). As to the kind of experiment: Inhibition of recombinant full length GST-tagged human MEK1 expressed in baculovirus infected sf9 insect cells at 20 uM measured after 30 to 90 mins by HTRF based Lanthascreen Eu kinase binding assay relative to AZD6244.
A short description of test [12]: Inhibition of BRAF/MEK1 (unknown origin) cascading pathway assessed as reduction in MEK1 phosphorylation incubated for 2 hrs in presence of 100 uM ATP by HTRF assay. Also on record: species or system Homo sapiens.
Test [13] can be described thus: Inhibition of BRAF/MEK1 (unknown origin) cascading pathway assessed as reduction in MEK1 phosphorylation incubated for 2 hrs in presence of 300 uM ATP by HTRF assay. On the set-up: species or system Homo sapiens.

Chain of Dual specificity mitogen-activated protein kinase kinase 1 (Homo sapiens) (Q02750 whole entry): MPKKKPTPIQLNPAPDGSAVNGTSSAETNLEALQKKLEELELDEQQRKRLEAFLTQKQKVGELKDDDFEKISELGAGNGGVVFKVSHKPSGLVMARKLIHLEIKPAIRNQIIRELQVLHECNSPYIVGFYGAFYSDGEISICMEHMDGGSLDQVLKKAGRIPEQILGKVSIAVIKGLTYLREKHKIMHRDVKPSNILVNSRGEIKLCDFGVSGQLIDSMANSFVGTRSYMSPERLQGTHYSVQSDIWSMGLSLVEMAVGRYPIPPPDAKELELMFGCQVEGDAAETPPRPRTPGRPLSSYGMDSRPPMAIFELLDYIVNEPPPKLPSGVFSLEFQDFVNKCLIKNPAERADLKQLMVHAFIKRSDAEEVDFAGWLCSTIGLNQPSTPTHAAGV

Turning to `Cc1ccc(S(=O)(=O)Nc2cc(OCc3nnc(N)o3)cc3c2[nH]c2ccccc23)cc1`, the inhibition in test [1] is 33%; in test [2], 21.4%.

For the molecule `CCOC(=O)COc1cc(NS(=O)(=O)c2ccc(C)cc2)c2[nH]c3ccccc3c2c1`, the IC50 in test [3] was 70.7 µM; in test [4], 70.7 µM; in test [5] it was greater than 100 µM; in test [6], greater than 100 µM. Besides, the inhibition in test [1] was determined as 56.6%; in test [2], 28.9%.

For the molecule `CC(=O)Nc1ccc(S(=O)(=O)Nc2cc(SCC(=O)O)cc3c2[nH]c2ccccc23)cc1`, the inhibition in [1] amounted to 44.2%; in [2], 27.7%.

On to `CC(=O)Nc1cccc(S(=O)(=O)Nc2cc(OCc3nnc(C)o3)cc3c2[nH]c2ccccc23)c1`, for which the inhibition in test [1] is 29.5%; in test [2] it was -10%.

On to `CC(=O)Nc1ccc(S(=O)(=O)Nc2cc(OCc3nnc(C)o3)cc3c2[nH]c2ccccc23)cc1`, for which the IC50 in test [3] was 43.7 µM; in [4] it was greater than 100 µM; in test [5] it was greater than 100 µM; in test [6] it was greater than 100 µM. Besides, the results for the inhibition in test [1] and in test [2] were 50.7% and 20.6%, respectively.

Take `N#CC(=C(/N)Sc1ccccc1N)/C(C#N)=C(\N)Sc1ccccc1N`: the results for the IC50 in test [3] and in test [4] were 1.1 µM and 32.2 µM, respectively. Also, the inhibition in [7] amounted to 26.9%; in test [1], 87.4%; in test [2], 80.9%; in [8], 41.7%.

As to `CCOC(=O)CSc1cc(NS(=O)(=O)c2ccc(NC(C)=O)cc2)c2[nH]c3ccccc3c2c1`, the inhibition in [1] came to 35.8%; in test [2] it was 21.8%.

On to `Cc1ccc(S(=O)(=O)Nc2cc(SCC(=O)O)cc3c2[nH]c2ccccc23)cc1`, for which the IC50 in test [3], in [4], in [5] and in test [6] was greater than 100 µM each time. The inhibition in test [1] worked out at 67.2%; in [2], 21.4%.

For `CCOC(=O)CSc1cc(NS(=O)(=O)c2ccc(C)cc2)c2[nH]c3ccccc3c2c1`, the values for the inhibition in [1] and in [2] were 45.2% and 39.2%, respectively.

`Cc1ccc(S(=O)(=O)Nc2cc(OCC(N)=O)cc3c2[nH]c2ccccc23)cc1`: the inhibition in test [1] worked out at 41.9%; in test [2] it was 27.9%.

`Cc1ccc(S(=O)(=O)Nc2cc(S(=O)(=O)CC(=O)O)cc3c2[nH]c2ccccc23)cc1`: the values for the inhibition in test [1] and in test [2] were 45% and 35.5%, respectively.

On to `Cc1ccc(S(=O)(=O)Nc2cc(OCc3nc(C)no3)cc3c2[nH]c2ccccc23)cc1`, for which the inhibition in test [1] was 38.2%; in test [2], 37.8%.

Consider `Cc1ccc(S(=O)(=O)Nc2cc(OCc3nnn[nH]3)cc3c2[nH]c2ccccc23)cc1`, for which the inhibition in [1] came to 46.8%; in [2], 45.1%.

Regarding `Cc1ccc(S(=O)(=O)Nc2cc(SCC(=O)O)c(O)c3c2[nH]c2ccccc23)cc1`, the IC50 was 14.7 µM in test [3], 12.8 µM in test [4], greater than 100 µM in [5] and 26.3 µM in test [6]. Besides, the inhibition in test [1] came out at 43.7%; in test [2], 35.6%.

Regarding `COc1cc(/C=C2\C(=O)NN(c3ccc(I)cc3)C2=O)ccc1OC(C)=O`, the inhibition in test [7] turned out to be 5.1%; in [9], 11.9%; in [1], 57%; in test [2], 35%; in test [11] it was 60.1%; in [8] it was 6.3%. In [10], the IC50 was 63.1 µM.

As for `CCOC(=O)COc1cc(NS(=O)(=O)c2ccc(NC(C)=O)cc2)c2[nH]c3ccccc3c2c1`, the inhibition in [1] was 27.4%; in [2] it was 18.2%.

On to `Cc1ccc(S(=O)(=O)Nc2cc(OCc3nnc(C)o3)cc3c2[nH]c2ccccc23)cc1`, for which the inhibition in test [1] was found to be 48.6%; in [2], 25.8%.

Take `Cc1ccc(S(=O)(=O)Nc2cc(SCC(=O)O)c(O)c3ccccc23)cc1`: the IC50 in test [3] was 7.7 µM; in test [4] it was 21.6 µM; in [5], 8.9 µM; in test [6] it was 17.2 µM; in test [10], greater than 160 µM. Moreover, the inhibition in [7] was determined as 3.9%; in test [9], 32.1%; in test [1] it was 56.1%; in test [2] it was 32%; in test [11], 90.3%; in test [8] it was 4.4%.

Take `Cc1ccc(S(=O)(=O)Nc2cc(OCC(=O)O)cc3c2[nH]c2ccccc23)cc1`: the IC50 in test [3] was greater than 100 µM; in test [12] it was 13.2 µM; in test [4], greater than 100 µM; in [5] it was greater than 100 µM; in test [6], greater than 100 µM; in test [13], 12.1 µM. The values for the inhibition in [1] and in test [2] were 65.8% and 21.5%, respectively.

The term inhibition denotes the relative decrease from the control value, in per cent. As a reminder, the IC50 is the concentration at which inhibition is half-maximal.
